Results as given in patent publication US9557319B2, “Cell-based arrays, methods of making, and methods of using” (University of Florida Research Foundation, Inc., priority 2010, dated 2017).
Like-named read-outs stand apart in the source and are kept apart here. Marks after values point to notes of the source that are not given here.

What was measured:
[1] = Drug release from microarrayed drug-loaded EVA islands; assay type: physicochemical; conditions: release from drug-loaded EVA microarray, followed by steady release
Description: For drug release studies, polymer formulations were again made as described above. Glass coverslips were weighed prior to printing. Arrays consisting of 900 drug-loaded polymer islands were manufactured and allowed to dry overnight. Samples were weighed and placed in 3 ml of PBS containing 0.1% Tween-80 at 37° C. with gentle agitation. Samples were taken at the specified times and analyzed.

[2] = test system: HCT116 cells; assay: Proliferation of HCT116 cells incubated with soluble drugs in 96-well plates; assay type: cell-based, human; conditions: soluble drug, 24 h
Description: FIGS. 12A-12D are a series of graphs illustrating apoptosis and proliferation dose-response curves from HCT116 cells incubated with soluble drugs. FIG. 12A illustrates the percent of apoptotic HCT116 cells incubated 24 h with soluble nutlin-3a. […] Significant differences were determined by ANOVA, {F(5,282)=19.694, p<0.05}, followed by Tukey's post-hoc analysis. FIG. 12C illustrates the percent of non-proliferating HCT116 cells incubated 24 h with soluble nutlin-3a. Significant differences were determined by ANOVA, {F(4,226)=12.643, p<0.05}, followed by Tukey's post-hoc analysis. […] Significant differences were determined by ANOVA, {F(5,252)=102.485, p<0.05}, followed by Tukey's post-hoc analysis. (*: p<0.05 compared to all other conditions, #:p<0.05 from all conditions marked *).
Results were corroborated using soluble drugs in 96-well plates (FIGS. 12A-D).

[3] = test system: HCT116 cells; assay: HCT116 proliferation (BrdU) on drug-eluting cellular microarray; assay type: cell-based, human; conditions: for drug sensitivity (1/D50) / Emax: non-proliferation, 24 h
Description: (§1) Glass coverslips were cleaned in an oxygen plasma etcher (Terra Universal, Fullerton, Calif.). Arrays of isolated spots of (3-Aminopropyl) trimethoxysilane (NH2-terminated silane) (Sigma-Aldrich, St. Louis, Mo.) were robotically printed on clean coverslips using a Calligrapher Miniarrayer printer (Bio-Rad, Hercules, Calif.) with 1500 μm center to center distances and a pin diameter of 400 μm. The silane printed coverslips were then coated with 175 Å of titanium (Ti; 99.995% pure) and 225 Å of gold (Au; 99.999% pure) (Williams Advanced Materials, Buffalo, N.Y.). Following coating, gold-coated arrays were sonicated to remove gold from the amine spots, exposing NH2-terminated silane islands. The coverslips were incubated with 0.1 M, methyl-terminated alkanethiol (CH3(CH2)11SH) (Sigma) for 30 min. Substrates were incubated in 10% Pluronic® F-127 (BASF Corporation, USA) for 3 h and 1% heat-denatured BSA for 30 min to create a non-fouling surface around the adhesive amine islands. Three layers of the drug-loaded ethylene vinyl acetate (EVA) polymers were printed over the amine islands and placed in a desiccator between each successive layer. Poly-d-lysine (0.1%) was over-spotted onto the EVA films to promote cell attachment. […] Schematic diagrams of the arrays are illustrated in FIGS. 6A and 6B.
(§2) HCT116 (p53+/+, ATCC, Manassas, Va.) human colon cancer cells were maintained in McCoy's 5a Medium supplemented with 10% fetal bovine serum (Thermo Scientific, Waltham, Mass.), 1% penicillin G and 1% streptomycin (Thermo Scientific). The cells were cultured at 37° C. in a humidified incubator containing 5% CO2. Following microarray fabrication, 100,000 HCT116 cells were seeded over each array in 3 ml serum-free media and allowed to incubate on a rocking plate at room temperature until cell attachment to the EVA islands occurred, with minimal attachment to background, typically 10-15 min. Microarrays were gently washed in PBS, placed in a 35 mm petri dish with complete media, and placed in an incubator for 24-72 h.
(§3) Camptothecin-loaded microarrays were stained with Annexin V (BD Pharminigen), fixed in 4% paraformaldehyde, and placed in PBS with Hoechst dye 34580 (Invitrogen, USA) for 30 min. Azide-loaded microarrays were fixed with 4% paraformaldehyde and incubated with PBS containing Hoechst 34580 dye. Finally, nutlin-3a-loaded microarrays were fixed with 4% paraformaldehyde, stained with BrdU (BD Bioscience, San Jose, Calif.), and incubated in PBS containing Hoechst 34580 dye. All arrays were mounted with Fluoro-Gel (Electron Microscope Sciences, Hatfield, Pa.) and imaged using an Axiovert 200M microscope (Carl Zeiss, Oberkochen, Germany). Analysis was performed with Axiovision (Carl Zeiss, Oberkochen, Germany) by quantifying, in each drug-eluting island, the area of fluorescence and reported as relative fluorescence intensity (RFI).
(§4) Proliferation values were normalized to control (0 μM drug). Values for concentration-response curves were transformed to non-proliferation by subtracting the normalized value from 100%. Curve fitting analysis was performed to obtain Emax and D50 values using the equation E=E0+(Emax×D)/(D+D50) where E is the effect (either non-proliferation or apoptosis), E0 is the initial value, Emax is the maximum effect, D is the dose, and D50 is the dose at which a 50% maximum effect (Emax) is observed^34. Drug sensitivity values were obtained by taking the inverse of the D50 and multiplying by 100. Those values marked with “#” indicate that the r^2 value of the curve-fit was below 0.65. N/A values are present where negative parameters were obtained.
(§5) Hyperbolic curve fits were generated for the dose responses from a first drug in the presence of a fixed amount of a second drug for each combination (Tables 2 and 3, below). […]

[4] = test system: CA2 CCSCs; assay: CA2 patient-derived CCSC proliferation on drug-eluting microarray; assay type: cell-based, human; conditions: for proliferation with increasing drug exposure: CA2 cells, single drug; for drug sensitivity (1/D50) / Emax: non-proliferation
Description: ALDH^high spheres were generated from tumor cells obtained from patients with colon cancer. Isolated cells were cultured in serum-free media as previously described^14 (reference 14 is hereby incorporated by reference herein with respect to methods for culturing cells in serum-free media). Using these cultures, adherent cell growth was established with 0.1% gelatin (Millipore) coatings on tissue culture plates (TPP, Switzerland) and the cells were serially propagated. For CA1 and CA2 cells, 25,000 cells were tested per array. Cells were seeded in PBS with 0.1% gelatin and treated identically to the microarrays with HCT116.
as §3, §4

[5] = test system: HCT116 cells; assay: HCT116 apoptosis (annexin V) on drug-eluting cellular microarray; assay type: cell-based, human; conditions: for drug sensitivity (1/D50) / Emax: apoptosis; for Emax: Homo sapiens, HCT-116, Camptothecin dose response
Description: as §1, §2, §3, §4, §5

[6] = Camptothecin dose response, 2nd drug NUT 0 μM
[7] = Camptothecin dose response, 2nd drug NUT 1 μM
[8] = Camptothecin dose response, 2nd drug NUT 25 μM
[9] = Nutlin dose response, 2nd drug CPT 1 μM
[10] = Nutlin dose response, 2nd drug CPT 10 μM
[11] = Nutlin dose response, 2nd drug CPT 50 μM
[12] = Nutlin dose response, 2nd drug CPT 0 μM, CA2
[13] = Nutlin dose response, 2nd drug CPT 1 μM, CA2
[14] = Nutlin dose response, 2nd drug CPT 10 μM, CA2
[15] = Nutlin dose response, 2nd drug CPT 50 μM, CA2

CC[C@@]1(O)C(=O)OCc2c1cc1n(c2=O)Cc2cc3ccccc3nc2-1 [Camptothecin]
burst release duration [1]: approximately 24 h | effect on reducing proliferation of HCT116 cells [2]: dose-dependent effect | increase in sensitivity to camptothecin in presence of nutlin-3a ([3]; 125 μM nutlin compared to 0 μM nutlin, HCT116 proliferation): over 16 fold | drug sensitivity (1/D50) [3, 6]: 4.83 +/− 0.54* | drug sensitivity (1/D50) ([3]; Camptothecin dose response, 2nd drug NUT 0 μM, listed as camptothecin): 4.83 | drug sensitivity (1/D50) [3, 7]: 5.65 +/− 5.2 | drug sensitivity (1/D50) [3, 8]: 12.1 +/− 18 | drug sensitivity (1/D50) ([3]; Camptothecin dose response, 2nd drug NUT 125 μM): 78.1 +/− 26* | drug sensitivity (1/D50) ([3]; Camptothecin dose response, 2nd drug NUT 125 μM, listed as camptothecin): 78.1 | Emax ([3]; Homo sapiens, HCT-116, 24 h, Camptothecin dose response, 2nd drug NUT 0 μM, read-out: Emax): 86.4% | Emax ([3]; Homo sapiens, HCT-116, 24 h, Camptothecin dose response, 2nd drug NUT 1 μM, read-out: Emax): 88.8% | Emax ([3]; Homo sapiens, HCT-116, 24 h, Camptothecin dose response, 2nd drug NUT 25 μM, read-out: Emax): 86.3% | Emax ([3]; Homo sapiens, HCT-116, 24 h, Camptothecin dose response, 2nd drug NUT 125 μM, read-out: Emax): 79.1% | proliferation with increasing drug exposure [4]: decreasing proliferation | drug sensitivity (1/D50) ([4]; Camptothecin dose response, 2nd drug NUT 0 μM, CA2): 133 +/− 5.3* ^ | drug sensitivity (1/D50) ([4]; Camptothecin dose response, 2nd drug NUT 1 μM, CA2): 1.60 +/− 7.9* ^ | drug sensitivity (1/D50) ([4]; Camptothecin dose response, 2nd drug NUT 125 μM, CA2): 0.00 +/− 1.01^# | Emax ([4]; Homo sapiens, Camptothecin dose response, 2nd drug NUT 0 μM, CA2, read-out: Emax): 46.6% | Emax ([4]; Homo sapiens, Camptothecin dose response, 2nd drug NUT 1 μM, CA2, read-out: Emax): 52.3% | Emax ([4]; Homo sapiens, Camptothecin dose response, 2nd drug NUT 25 μM, CA2, read-out: Emax): 43.9% | decrease in the Emax of the camptothecin concentration response curve ([5]; 125 μM nutlin-3a compared to 0 μM nutlin-3a, HCT116 apoptosis): 65% | proportion of HCT116 cells undergoing apoptosis on single-drug microarray ([5]; 72 h incubation): greater with increasing concentrations | drug sensitivity (1/D50) [5, 6]: 2.53 +/− 1.1 | drug sensitivity (1/D50) [5, 7]: 83.3 +/− 76 | drug sensitivity (1/D50) [5, 8]: 15.9 +/− 2.8 | Emax ([5]; 2nd drug NUT 0 μM): 21.6% | Emax ([5]; 2nd drug NUT 1 μM): 12.8% | Emax ([5]; 2nd drug NUT 25 μM): 9.31% | Emax ([5]; 2nd drug NUT 125 μM): 7.46%

COc1ccc(C2=N[C@@H](c3ccc(Cl)cc3)[C@@H](c3ccc(Cl)cc3)N2C(=O)N2CCNC(=O)C2)c(OC(C)C)c1 [Nutlin-3a]
burst release duration [1]: approximately 8 h | effect on reducing proliferation of HCT116 cells [2]: dose-dependent effect | increase in sensitivity to nutlin-3a on addition of camptothecin ([3]; 50 μM CPT compared to 0 μM CPT, HCT116 proliferation): over 5 fold | cell cycle arrest (ratio of non-proliferating cells) on single-drug microarray ([3]; HCT116, 24 h): dose-dependent cell cycle arrest | Emax ([3]; Nutlin dose response, 2nd drug CPT 0 μM): 108 +/− 110 | drug sensitivity (1/D50) ([3]; Nutlin dose response, 2nd drug CPT 0 μM, listed as Nutlin): 3.00 +/− 0.49* | drug sensitivity (1/D50) ([3]; Nutlin dose response, 2nd drug CPT 0 μM, listed as nutlin-3a): 3.0 | Emax [3, 9]: 96.1 +/− 25 | drug sensitivity (1/D50) [3, 9]: 1.78 +/− 1.7 | Emax [3, 10]: 86.5 +/− 19 | drug sensitivity (1/D50) [3, 10]: 2.97 +/− 3.7 | Emax [3, 11]: 81.4 +/− 1.9 | drug sensitivity (1/D50) ([3]; Nutlin dose response, 2nd drug CPT 50 μM, listed as Nutlin): 19.6 +/− 12 | drug sensitivity (1/D50) ([3]; Nutlin dose response, 2nd drug CPT 50 μM, listed as nutlin-3a): 19.6 | decrease in Emax of the concentration response curve to nutlin-3a ([4]; 50 μM camptothecin present vs nutlin-3a alone, CA2, not significant (p=0.097)): 53% | proliferation with increasing drug exposure [4]: decreasing proliferation | Emax [4, 12]: 73.3 +/− 9.3* | drug sensitivity (1/D50) [4, 12]: 171 +/− 49 ^ | Emax [4, 13]: 43.8 +/− 11 | drug sensitivity (1/D50) [4, 13]: 189 +/− 328 ^ | Emax [4, 14]: 57.0 +/− 39 | drug sensitivity (1/D50) [4, 14]: 0.95 +/− 4.6^# | Emax [4, 15]: 34.1 +/− 9.3* | drug sensitivity (1/D50) [4, 15]: 303 +/− 260 ^ | drug sensitivity (1/D50) [5, 10]: 2.48 +/− 0.83 | drug sensitivity (1/D50) [5, 11]: 143 +/− 98 | effect on proportion of HCT116 cells that underwent apoptosis ([5]; administered alone, microarray): no effect | proportion of HCT116 cells that underwent apoptosis ([5]; nutlin-3a alone, 125 μM loading): 5.6%
